In test [1] the target is T1, human alpha 2A receptor (Homo sapiens, UniProt P08913).
T1 construct: expressed in transfected cells; host or cells: HEK 293
T1 sequence (P08913 1-465): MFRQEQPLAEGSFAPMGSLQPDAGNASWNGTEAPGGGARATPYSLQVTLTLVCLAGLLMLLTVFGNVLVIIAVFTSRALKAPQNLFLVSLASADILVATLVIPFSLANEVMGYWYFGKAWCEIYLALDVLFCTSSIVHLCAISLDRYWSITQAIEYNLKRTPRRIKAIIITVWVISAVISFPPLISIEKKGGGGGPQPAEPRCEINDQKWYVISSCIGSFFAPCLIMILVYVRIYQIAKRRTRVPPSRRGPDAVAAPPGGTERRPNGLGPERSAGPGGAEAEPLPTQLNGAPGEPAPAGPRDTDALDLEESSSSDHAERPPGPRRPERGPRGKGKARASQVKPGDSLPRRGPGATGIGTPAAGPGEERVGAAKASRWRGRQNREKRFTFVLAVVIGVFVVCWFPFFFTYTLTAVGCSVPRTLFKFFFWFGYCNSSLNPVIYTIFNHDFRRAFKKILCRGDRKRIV
Briefly: FLIPR Ca+2 influx assay, a2A. The following applies: for a2A (eff): efficacy in brackets, norepinephrine is the standard full agonist, HEK 293 cells. The format is cell-based. Here is the method:
(§1) HEK 293 cells stably expressing the bovine α1A receptor, human alpha 2A receptor and the chimeric G protein Gqi5, are plated in poly-D-lysine coated 384-well plates at 20,000-40,000 cells per well and grown overnight in DMEM supplemented with 10% fetal bovine serum. For FLIPR (fluorometric image plate reader) evaluation, cells are washed twice with HBSS/HEPES Buffer (1× Hanks Buffered Salt Solution, 20 mM HEPES, pH 7.4) prior to the addition of Fluo-4-AM (4 uM Fluo-4-AM, 0.04% pluronic acid in HBSS/HEPES Buffer), a calcium-sensitive dye. Cells are loaded with dye for 40 minutes at 37° C., then washed 4 times with HBSS/HEPES Buffer. For both the agonist and antagonist assay, the test compounds are tested between 0.64 nM-10,000 nM.
(§2) For an agonist assay, the reaction is initiated by the addition of the appropriate dilutions of compounds and the transient calcium signal captured. The peak height of the calcium curve is determined and utilized for calculation of EC50 and efficacy using ActivityBase. Norepinephrine is the standard full agonist used for evaluating alpha-1 and alpha-2 receptor activity.
The residual norepinephrine peak height is compared to the non-antagonized norepinephrine peak height for the determination of % antagonism.

In test [2] the target is T2, bovine α1A receptor (Bos taurus, UniProt P18130).
T2 sequence (P18130 1-466): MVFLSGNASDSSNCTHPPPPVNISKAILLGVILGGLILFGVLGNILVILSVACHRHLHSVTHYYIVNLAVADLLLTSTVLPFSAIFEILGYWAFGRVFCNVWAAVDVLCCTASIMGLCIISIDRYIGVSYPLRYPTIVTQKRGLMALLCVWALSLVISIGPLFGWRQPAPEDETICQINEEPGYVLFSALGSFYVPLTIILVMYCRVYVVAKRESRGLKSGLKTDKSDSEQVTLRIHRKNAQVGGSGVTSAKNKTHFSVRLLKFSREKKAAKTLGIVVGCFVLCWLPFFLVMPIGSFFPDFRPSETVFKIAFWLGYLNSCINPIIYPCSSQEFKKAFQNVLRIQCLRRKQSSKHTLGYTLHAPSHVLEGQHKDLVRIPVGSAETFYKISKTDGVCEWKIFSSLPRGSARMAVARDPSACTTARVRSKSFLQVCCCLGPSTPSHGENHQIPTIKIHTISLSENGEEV
Briefly: FLIPR Ca+2 influx assay, a1A. Format: cell-based. The following applies: for a1A (eff): efficacy in brackets, norepinephrine is the standard full agonist, HEK 293 cells. Here is the method:
as §1, §2
However, the antagonist blocks the transient calcium signal of the standard agonist norepinephrine in a dose-dependent manner. The residual norepinephrine peak height is compared to the non-antagonized norepinephrine peak height for the determination of % antagonism.

Where two headings read alike, the source gives them in different places.

In general, EC50 refers to the concentration that produces a half-maximal response. Consider `Brc1c(NC2=NCCN2)ccc2nccnc12` [Brimonidine], for which the “a2A (eff)” value in test [1] is reported as 0.95. Moreover, in test [2] (HEK 293 cells with chimeric G protein Gqi5, agonist assay, tested 0.64 nM-10,000 nM, n/a: Not active, read-out: a1A EC50), the EC50 was in the range of 600 to 2400 nM. For the same compound, the “a1A (eff)” value in test [2] was found to be 0.3.
In the case of `Cc1c(CO)cccc1[C@H](C)c1c[nH]cn1` [(S)-[3-(1-(1H-imidazol-4-yl)ethyl)-2-methylphenyl]methanol], in test [1], the midpoint of the response, the EC50, lay at 25 nM and the “a2A (eff)” value was determined as 0.9. Besides, in test [2], the EC50 fell in the range of 340 to 2400 nM and the “a1A (eff)” value is listed as 0.7.

Source of the values: patent publication US8492557B2, “Ester pro-drugs of [3-(1-(1H-imidazol-4-yl)ethyl)-2-methylphenyl] methanol” (Allergan, Inc., priority 2010, dated 2013).
